Data set [1] can be described thus: ESR measurement of DMPO—OH spin adducts during Fenton chemistry. The format is biochemical.
Method: The effect of ATP on the formation or scavenging of hydroxyl radicals, generated by Fenton reagents was measured as DMPO—OH spin adducts in ESR spectra. The ESR studies were performed at room temperature using a Bruker EMX 1273 spectrometer equipped with an ER 4119HS high sensitivity cavity and 12 kW power supply. The following instrument conditions were used: scan range, 60 G; center magnetic field, 3490 G; modulation amplitude, 1.0 G; microwave frequency, 9.86 GHz; time constant, 40.96 ms, scan time, 20.48 ms; number of scans, 50. OH radicals were generated by the Fenton reaction, and 5,5-dimethyl-1-pyrroline N-oxide (DMPO) was used for trapping hydroxyl radicals. Fifty microliters of 10 mM H2O2, 50 μl of 250 mM DMPO, 50 μl milliQ, 50 μl milliQ (control) or sample, and 50 μl 5 mM FeSO4/5 mM EDTA were mixed, and then transferred to a capillary glass tube. After 2 minutes, DMPO—OH spin adducts were measured by ESR. Quantification of the spectra was performed by peak integration using the WIN-EPR spectrum manipulation program.
Electron spin resonance (ESR) studies were performed at room temperature using a Bruker EMX 1273 spectrometer equipped with an ER 4119HS high sensitivity cavity and 12 kW power supply. The following instrument conditions were used: scan range, 60 G; center magnetic field, 3490 G; modulation amplitude, 1.0 G; microwave frequency, 9.86 GHz; time constant, 40.96 ms, scan time, 20.48 ms; number of scans, 50. OH radicals were generated by the Fenton reaction, and 5,5-Dimethyl-1-pyrroline N-oxide (DMPO) was used for trapping hydroxyl radicals. Fifty microliters of 10 mM H2O2, 50 μl 250 mM DMPO, 50 μl milliQ, 50 μl milliQ (blanco) or sample and 50 μl 5 mM FeSO4/5 mM EDTA were mixed, transferred to a capillary glass tube and the DMPO—OH spin adducts were measured after 2 minutes by ESR. Quantification of the spectra (in arbitrary units) was performed by peak integration using the WIN-EPR spectrum manipulation program.
The subject of the next data set is TNF-α. The data set can be described thus: LPS+PHA-induced TNF-α secretion in whole blood under oxidative stress (H2O2). Format: cell-based, human. The procedure:
FIG. 10 Effect of ATP on LPS+PHA-induced TNF-α secretion in whole blood from healthy subjects under conditions of oxidative stress. Two concentrations of H2O2 (1 and 10 mM) were added to whole blood, followed by the incubation with the concentrations of ATP. Then, blood was exposed to 10 μg/ml LPS and 1 μg/ml PHA, and incubated for 24 h. The TNF-α released into the supernatants was analyzed using the ELISA method. […] Data are expressed as the mean values; error bars represent SEM.
Whole blood of healthy subjects was collected as described for Experiment 2, and pre-incubated with 1 or 10 mM H2O2 at 5% CO2 and 37° C. for 15 min. Then, ATP was added to the blood at final concentrations of 1-300 μM for the 30 min incubation step, and then incubated as in Experiment 2 with LPS/PHA for 24 hours.

A further data set deals with TNF-α/IL-10 ratio. Description: TNF-α/IL-10 ratio in whole blood from patients with oxidative stress-related diseases. The format is cell-based, human. Conditions: for reduction in the TNF-α/IL-10 ratio: 300 μM ATP. The procedure:
FIG. 15 Effect of ATP on the ratio of TNF-α/IL-10 secretion in whole blood from a patient with oxidative stress-related disease. […] In both experiments, TNF-α and IL-10 released into the supernatants was analyzed using the ELISA method. Results are expressed in percentage, 100% being the TNF-α/IL-10 ratio without ATP (control).
FIG. 16 Effect of ATP on the ratio of TNF-α/IL-10 secretion in whole blood from a patient with oxidative stress-related disease. […] In both experiments, TNF-α and IL-10 released into the supernatants was analyzed using the ELISA method. Results are expressed in percentage, 100% being the TNF-α/IL-10 ratio without ATP (control). Both in untreated and in LPS-PHA stimulated blood, the ratio of TNF-α/IL-10 release from whole blood was reduced by the addition of ATP.
FIG. 17 Effect of ATP on the ratio of TNF-α/IL-10 secretion in whole blood from a patient with oxidative stress-related disease. […] TNF-α and IL-10 released into the supernatants was analyzed using the ELISA method. Results are expressed in percentage, 100% being the TNF-α/IL-10 ratio without ATP (control). The ratio of TNF-α/IL-10 release from whole blood was reduced by the addition of ATP.
This experiment was performed to test the effects of ATP ex vivo in whole blood collected from patients with oxidative stress-related diseases, both without and with LPS+PHA stimulation of cytokine production. Whole blood from 3 patients with different oxidative stress-related diseases was collected as described for experiment 2, and incubated for 24 hours at 5% CO2 and 37° C., with ATP added at a final concentration 300 μM, or no ATP (control). Cytokine production was measured as in Experiment 2. Results were expressed as the TNF-α/IL-10 ratio relative to the control condition (no ATP).

For the next data set, the system named is GSH and GSH/GSSG ratios. Description: Intracellular GSH and GSH/GSSG ratios in whole blood after γ-irradiation. Format: cell-based. The conditions noted are these: 300 μM ATP, 16 Gy. The procedure: Samples with 5 ml of blood were pre-incubated with 300 μM ATP or medium (control) for 30 minutes. Then, at t=0, each blood sample was irradiated with γ-radiation at a dose of 16 Gy. Preceding irradiation (baseline) and at 1 h, 3 h and 5 h post-irradiation, a sample was taken for analysis of intracellular GSH and GSH/GSSG ratios according to standard methods, as well as for cytokine analysis by the ELISA method.

Data set [2] has as its system guinea pig alveolar macrophages. The data set can be described thus: Guinea pig alveolar macrophages incubated with LPS and spin-trap DMPO. The format is cell-based. The text has this: As mentioned above, ATP is known to enhance the oxidative burst of neutrophils and other phagocytic cells. […] In a study using guinea pig alveolar macrophages (according to (35, 36)) we confirmed the ATP dependent increase in H2O2 formation. […] This finding underlines the importance and practical relevance of the present invention that ATP attenuates of hydroxyl radical DMPO adduct formation in a more chemically oriented set-up. Our finding that the formation of the DMPO—OH adducts is inhibited by the presence of ATP, also in incubations with alveolar macrophages, is of great promise for the protective effect of ATP in diseases and conditions in which oxidative stress plays a predominant role, as discussed on the previous pages.

Data set [3] in a line: Randomized ATP infusions in non-small-cell lung cancer patients, stage IIIB and IV. The format is in vivo, human. The procedure: Patients with non-small-cell lung cancer, stage IIIB and IV, in the palliative treatment stage, were randomized to receive either ATP infusions (total of 10 infusions over 24 weeks) or no treatment. Outcome assessment (quality of life, blood values) was performed at regular intervals.

The conditions of data set [4]: previous study, ATP infusion during 30 hrs; cited from earlier work.
Data set [5] deals with mice bearing colon tumour. Conditions: daily intraperitoneal injections of 25 mmol/L for 10 days; cited from earlier work.

Molecules are shown by their SMILES.

Data on one molecule can be found in patent US20090215713A1, “Use of atp for the manufacture of a medicament for the prevention and treatment of oxidative stress and related conditions” (priority 2004, published 2009).

Take `Nc1ncnc2c1ncn2[C@@H]1O[C@H](COP(=O)(O)OP(=O)(O)OP(=O)(O)O)[C@@H](O)[C@H]1O` [ATP, Adenosine 5′-triphosphate]: the “effect on DMPO—OH spin adduct formation” value in data set [1] (100 μM) is “significant inhibition”. Besides, the “inhibition of the DMPO—OH spin adduct formation” value in data set [1] (highest concentration used (range 0.1 mM-10 mM)) was 80% and ≈ 80%. Besides, in data set [1] (representative ESR spectra, FIG. 1), the “effect on DMPO—OH spin adduct formation vs control (buffer)” value is “strongly inhibited”. Further, the “effect on LPS+PHA-induced TNF-α release” value with TNF-α (1 or 10 mM H2O2) is reported as “significantly inhibited”. For the same molecule, in the data set on TNF-α (ATP below 100 μM, 1 or 10 mM H2O2), the “effect on TNF-α release” value was “did not affect”. Further, the inhibition at 300 µM with TNF-α (Homo sapiens, 300 μM ATP, 1 or 10 mM H2O2, LPS-PHA, read-out: inhibition of TNF-α release) is about 50%. Further, in the data set on TNF-α/IL-10 ratio (patient blood stimulated with LPS+PHA, depending on the patient), the “reduction in the TNF-α/IL-10 ratio” value was 40-80%. Also, the “reduction in the TNF-α/IL-10 ratio” value with TNF-α/IL-10 ratio (patient blood without LPS+PHA) is 60-80%. Also, in the data set with TNF-α/IL-10 ratio (patient blood, untreated and/or LPS+PHA-stimulated), the “effect on ratio of TNF-α/IL-10 release” value was “markedly reduced”. The “effect on irradiation-induced decrease in GSH and GSH/GSSG ratios” value in the data set with GSH and GSH/GSSG ratios is “attenuation”. Besides, the “effect on H2O2 formation” value in data set [2] is listed as “increase”. Further, in data set [2] (macrophages incubated with LPS), the “effect on DMPO—OH adduct formation” value is recorded as “inhibited”. In data set [3] (24-week study period), the “plasma lactate dehydrogenase concentration” value is given as “remained stable” and the plasma triglyceride concentration result is on record as “remained stable”. In data set [3] (human, in vivo), the “decreased sexual interest, compared to the control group” value is given as “normalization”; the “dizziness, compared to the control group” value is “reduction”; the “dry mouth, compared to the control group” value is given as “improvement”. Further, in data set [4], the life-threatening side effects entry is “did not find any”. In addition, the “effect on host weight loss” value in data set [5] is given as “significant inhibition”.
